Data on five cell lines can be found in the supplement of paper PMC10307832.

Experiment in all cases: relative viability (nuclei count vs DMSO), 5 days (fraction); higher = more cells survive
Compound in the assay “Carfilzomib + Pemetrexed”: CC(C)C[C@H](NC(=O)[C@H](CCc1ccccc1)NC(=O)CN1CCOCC1)C(=O)N[C@@H](Cc1ccccc1)C(=O)N[C@@H](CC(C)C)C(=O)[C@@]1(C)CO1 [Carfilzomib] + Nc1nc2[nH]cc(CCc3ccc(C(=O)N[C@@H](CCC(=O)O)C(=O)O)cc3)c2c(=O)[nH]1 [Pemetrexed] (partner 0.2 µM)
In short, it runs like this: (§1)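 Relative viability was taken as the ratio of nuclei in treated wells to nuclei in vehicle wells. Lung cancer cell lines in 1536-well plates received compounds by pin tool one day after seeding, either one drug alone or a fixed anchor-drug dose plus five library-drug doses (not always all listed) in √10 steps. Nuclei were counted on 4× images after 5 days of treatment, and values are medians of duplicate plates.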

Compound in the assay “Crizotinib + Alpelisib”: C[C@@H](Oc1cc(-c2cnn(C3CCNCC3)c2)cnc1N)c1c(Cl)ccc(F)c1Cl [Crizotinib] + Cc1nc(NC(=O)N2CCC[C@H]2C(N)=O)sc1-c1ccnc(C(C)(C)C(F)(F)F)c1 [Alpelisib] (partner 2 µM)
In short, it runs like this:
as §1

Compound in the assay “Crizotinib + OSI-027”: C[C@@H](Oc1cc(-c2cnn(C3CCNCC3)c2)cnc1N)c1c(Cl)ccc(F)c1Cl [Crizotinib] + COc1cccc2cc(-c3nc([C@H]4CC[C@H](C(=O)O)CC4)n4ncnc(N)c34)[nH]c12 [OSI-027] (partner 0.5 µM)
Put shortly:
as §1

Compound in the assay “Olaparib + Linsitinib”: O=C(c1cc(Cc2n[nH]c(=O)c3ccccc23)ccc1F)N1CCN(C(=O)C2CC2)CC1 [Olaparib] + C[C@]1(O)C[C@@H](c2nc(-c3ccc4ccc(-c5ccccc5)nc4c3)c3c(N)nccn32)C1 [Linsitinib] (partner 1 µM)
In short, it runs like this: as §1

NCI-H1563: the relative viability in the assay with Carfilzomib + Pemetrexed (first compound 0.001 µM) was found to be 0.685; with Carfilzomib + Pemetrexed (first compound 0.003162 µM), 0.773; in the assay with Carfilzomib + Pemetrexed (first compound 0.01 µM), 0.727; with Carfilzomib + Pemetrexed (first compound 0.03162 µM), 0.82; with Carfilzomib + Pemetrexed (first compound 0.1 µM), 0.498; with Crizotinib + Alpelisib (first compound 0.01 µM) it was 0.85. Besides, the relative viability is 0.838 in the assay with Crizotinib + Alpelisib (first compound 0.03162 µM); 1.03 in the assay with Crizotinib + Alpelisib (first compound 0.1 µM); 0.938 in the assay with Crizotinib + Alpelisib (first compound 0.3162 µM); 0.782 in the assay with Crizotinib + Alpelisib (first compound 1 µM); 0.705 with Crizotinib + OSI-027 (first compound 0.01 µM); 0.766 with Crizotinib + OSI-027 (first compound 0.03162 µM). Also, the relative viability is 0.753 with Crizotinib + OSI-027 (first compound 0.1 µM); 0.727 with Crizotinib + OSI-027 (first compound 0.3162 µM); 0.766 with Crizotinib + OSI-027 (first compound 1 µM); 1.22 in the assay with Olaparib + Linsitinib (first compound 0.08 µM); 1.25 in the assay with Olaparib + Linsitinib (first compound 0.253 µM); 1.2 in the assay with Olaparib + Linsitinib (first compound 2.53 µM). Besides, in the assay with Olaparib + Linsitinib (first compound 8 µM), the relative viability came out at 1.2.

For NCI-H2405, the relative viability worked out at 1.02 with Carfilzomib + Pemetrexed (first compound 0.001 µM); 1.14 with Carfilzomib + Pemetrexed (first compound 0.003162 µM); 1.04 with Carfilzomib + Pemetrexed (first compound 0.01 µM); 0.898 with Carfilzomib + Pemetrexed (first compound 0.03162 µM); 0.205 in the assay with Carfilzomib + Pemetrexed (first compound 0.1 µM); 0.74 with Crizotinib + Alpelisib (first compound 0.01 µM). Further, the relative viability with Crizotinib + Alpelisib (first compound 0.03162 µM) amounted to 0.762; in the assay with Crizotinib + Alpelisib (first compound 0.1 µM) it was 0.69; with Crizotinib + Alpelisib (first compound 0.3162 µM), 0.818; in the assay with Crizotinib + Alpelisib (first compound 1 µM) it was 0.857; with Crizotinib + OSI-027 (first compound 0.01 µM) it was 0.636; with Crizotinib + OSI-027 (first compound 0.03162 µM), 0.605. The relative viability in the assay with Crizotinib + OSI-027 (first compound 0.1 µM) amounted to 0.587; with Crizotinib + OSI-027 (first compound 0.3162 µM) it was 0.669; with Crizotinib + OSI-027 (first compound 1 µM) it was 0.593; with Olaparib + Linsitinib (first compound 0.08 µM) it was 1.15; with Olaparib + Linsitinib (first compound 0.253 µM), 0.93; with Olaparib + Linsitinib (first compound 2.53 µM), 0.915. Further, the relative viability in the assay with Olaparib + Linsitinib (first compound 8 µM) is 0.851.

As for SW 1573, the relative viability with Carfilzomib + Pemetrexed (first compound 0.001 µM) was 0.809; with Carfilzomib + Pemetrexed (first compound 0.003162 µM), 0.927; in the assay with Carfilzomib + Pemetrexed (first compound 0.01 µM) it was 0.613; in the assay with Carfilzomib + Pemetrexed (first compound 0.03162 µM), 0.071; with Carfilzomib + Pemetrexed (first compound 0.1 µM), 0.0521; with Crizotinib + Alpelisib (first compound 0.01 µM) it was 0.663. The relative viability with Crizotinib + Alpelisib (first compound 0.03162 µM) worked out at 0.896; with Crizotinib + Alpelisib (first compound 0.1 µM), 0.638; in the assay with Crizotinib + Alpelisib (first compound 0.3162 µM), 0.732; in the assay with Crizotinib + Alpelisib (first compound 1 µM), 0.779; in the assay with Crizotinib + OSI-027 (first compound 0.01 µM), 0.538; with Crizotinib + OSI-027 (first compound 0.03162 µM), 0.609. The relative viability with Crizotinib + OSI-027 (first compound 0.1 µM) came out at 0.563; in the assay with Crizotinib + OSI-027 (first compound 0.3162 µM) it was 0.59; with Crizotinib + OSI-027 (first compound 1 µM), 0.587; with Olaparib + Linsitinib (first compound 0.08 µM) it was 0.893; in the assay with Olaparib + Linsitinib (first compound 0.253 µM), 0.889; in the assay with Olaparib + Linsitinib (first compound 2.53 µM) it was 0.661. The relative viability with Olaparib + Linsitinib (first compound 8 µM) is 0.73.

HCC-44: the relative viability with Carfilzomib + Pemetrexed (first compound 0.001 µM) came out at 0.665; with Carfilzomib + Pemetrexed (first compound 0.003162 µM), 0.605; with Carfilzomib + Pemetrexed (first compound 0.01 µM), 0.658; in the assay with Carfilzomib + Pemetrexed (first compound 0.03162 µM), 0.705; in the assay with Carfilzomib + Pemetrexed (first compound 0.1 µM) it was 0.685; with Crizotinib + Alpelisib (first compound 0.01 µM) it was 0.808. For the same cell line, the relative viability in the assay with Crizotinib + Alpelisib (first compound 0.03162 µM) came to 0.801; in the assay with Crizotinib + Alpelisib (first compound 0.1 µM) it was 0.853; with Crizotinib + Alpelisib (first compound 0.3162 µM), 0.744; with Crizotinib + Alpelisib (first compound 1 µM) it was 0.815; with Crizotinib + OSI-027 (first compound 0.01 µM), 0.409; with Crizotinib + OSI-027 (first compound 0.03162 µM), 0.546. The relative viability amounted to 0.611 in the assay with Crizotinib + OSI-027 (first compound 0.1 µM); 0.54 with Crizotinib + OSI-027 (first compound 0.3162 µM); 0.371 in the assay with Crizotinib + OSI-027 (first compound 1 µM); 0.654 with Olaparib + Linsitinib (first compound 0.08 µM); 0.562 with Olaparib + Linsitinib (first compound 0.253 µM); 0.713 with Olaparib + Linsitinib (first compound 2.53 µM). In addition, in the assay with Olaparib + Linsitinib (first compound 8 µM), the relative viability came out at 0.682.

For the cell line A-427, the relative viability with Carfilzomib + Pemetrexed (first compound 0.001 µM) is 0.951; with Carfilzomib + Pemetrexed (first compound 0.003162 µM) it was 1.02; with Carfilzomib + Pemetrexed (first compound 0.01 µM), 0.983; in the assay with Carfilzomib + Pemetrexed (first compound 0.03162 µM), 0.842; with Carfilzomib + Pemetrexed (first compound 0.1 µM) it was 0.183; in the assay with Crizotinib + Alpelisib (first compound 0.01 µM), 1.04. For the same cell line, the relative viability is 1.05 with Crizotinib + Alpelisib (first compound 0.03162 µM); 1.11 with Crizotinib + Alpelisib (first compound 0.1 µM); 1.06 with Crizotinib + Alpelisib (first compound 1 µM); 0.352 in the assay with Crizotinib + OSI-027 (first compound 0.01 µM); 0.447 with Crizotinib + OSI-027 (first compound 0.03162 µM); 0.414 with Crizotinib + OSI-027 (first compound 0.1 µM). In addition, the relative viability with Crizotinib + OSI-027 (first compound 1 µM) stood at 0.441; with Olaparib + Linsitinib (first compound 0.08 µM), 1.12; in the assay with Olaparib + Linsitinib (first compound 0.253 µM) it was 1.03; with Olaparib + Linsitinib (first compound 2.53 µM), 1.03; in the assay with Olaparib + Linsitinib (first compound 8 µM), 0.851.
